Activity calls are given as the source filed them. The rule behind the calls is not given here.
Test system: Rattus norvegicus
Experiment: Hypoglycemic activity in Rattus norvegicus albino Wistar (rat) streptozotocin-induced diabetic model assessed as reduction of plasma glucose level at 20 mg/kg, po qd for 60 days measured up to 180 min by oral glucose tolerance test
Type: functional, organism-based
Set-up: dose 20 mg/kg

Oc1cc(O)c2c(c1)OC(c1ccc(O)c(O)c1)C(O)C2 (stereo unspecified)
Activity: Active

Source: ChEMBL document CHEMBL3046662, “Hypoglycemic and insulin mimetic impact of catechin isolated from Cassia fistula: a substantiate in silico approach through docking analysis” (Med Chem Res, 2012)
